Source: US20050004044A1, “Use of orsaponin [3beta, 16beta, 17 alpha-trihydroxycholost-5-en-22-one 16-0-(2-0-4-methoxybenzoyl-beta-D-xylopyranosyl)-(1->3)-(2-0-acetyl-alpha-L-arabinopyranoside)] or OSW-1 and its derivatives for cancer therapeutics” (priority 2003, published 2005)
Read-outs that look alike come from different tables or passages of the source.

Legend:
[1] = test system: normal human astrocytes (immortalized with hTER); test: MTT cell growth inhibition, normal astrocytes; format: cell-based; details: Astrocyte, 72 h
Description: (§1) 1. MTT Assays. For these assays either cancer cell lines were used. Alternatively, mononuclear cells from peripheral blood samples of CLL patients or normal donors were separated by Ficoll Hipaque fractionation and resuspended in DMEM complete medium. Malignant cells from various human cell lines (usually at 5×10^4 cells/ml) or mononuclear cells from peripheral blood of leukemia patients and healthy donors (1×10^6 cells/ml) were incubated in either αMEM or RPMI 1640 with or without various concentrations of OSW-1 in the range of 0-10 nM. Each experimental condition was done in triplicate. After the indicated number of days (usually 3 days or 72 hours) of exposure to OSW-1, cell survival was assessed by the addition of the MTT dye to the wells. The MTT dye changes its color depending on the presence of live cells in the well. Survival of cells under orsaponin treatment was evaluated as a percentage of control cell growth. Alternatively, one can also use the dye trypan-blue which penetrates dead cells thereby allowing one to count live cells under the microscope and estimating percentage survival.
To test the therapeutic selectivity of Orsaponin and 17-deoxyorsaponin, their effect on human brain tumor cells (U87 malignant glioma) and normal human astrocytes were compared. […] Cell growth inhibition was measured by MTT assay (FIG. 21).

primary CLL cells = test: cells; format: cell-based
Description: FIG. 7. Effect of Orsaponin (OSW-1) on cell survival in primary human leukemia cells isolated from patients with chronic lymphocytic leukemia (CLL). Freshly isolated primary CLL cells were incubated with the indicated concentrations of OSW-1 for 72 hours in vitro. Cell viability was measured by MTT assay. […] Data from representative experiments with CLL cells from three different patients are shown. A total of 23 CLL blood samples were tested for sensitivity to OSW-1 in the same fashion.
as §1
Reduction of Cell Viability in CLL-Patient-Derived Cells. […] Freshly isolated primary CLL cells were incubated with the 0-100 nM OSW-1 for 72 hours in vitro and cell viability was measured by the MTT assay.
Cytotoxic activity of 17-deoxyorsaponin was also assessed in a number of patient samples. Primary human leukemia cells isolated from 11 patients with chronic lymphocytic leukemia (CLL) were analyzed for cytotoxic activity of 17-deoxyorsaponin. […]

ML-1 cells = test: Mitochondrial transmembrane potential (rhodamine-123), ML-1; format: cell-based, human; details: ML-1, 1 nM, 16 and 24 h
Description: FIG. 11. Effect of orsaponin (OSW-1) on mitochondrial transmembrane potential ML-1 cells. The parental ML-1 line and its mutant with mitochondrial respiration defect, clone C19, were incubated with 1 nM OSW-1 for the indicated times. Change in mitochondrial transmembrane potential was measured by cytometry analysis, using rhodamine-123 as a potential-sensitive fluorescent probe.
3. Analysis of the Mitochondrial Transmembrane Potential. To evaluate the role of mitochondrial respiration in the cytotoxicity of OSW-1, changes in the potential of mitochondrial membrane were analyzed. Following the treatment of cells with OSW-1 for different time periods, cells were incubated with rhodamine-123 which is a potential-sensitive dye. Cytometric analysis was used to record changes in mitochondrial potential. […]
The effect of OSW-1 on mitochondrial transmembrane potential of ML-1 cells and the corresponding mitochondrial respiration defective mutant cell line C19 were analyzed by incubating with 1 nM OSW-1 for 4, 16 and 24 hours. Change in mitochondrial transmembrane potential was measured by cytometry analysis, using rhodamine-123 as a potential-sensitive fluorescent probe and are depicted in FIG. 11.

[2] = test system: normal human pulmonary cells; details: Mimaki et al., 1997; read-out: IC50, toxicity to normal human pulmonary cells; cited from earlier work
[3] = test system: primary normal lymphocytes; test: MTT cell viability, normal lymphocytes from healthy donors; format: cell-based; details: Homo sapiens, Lymphocyte
Description: FIG. 8. Effect of Orsaponin (OSW-1) on cell survival in primary normal lymphocytes isolated from healthy donors. Freshly isolated normal lymphocytes were incubated with the indicated concentrations of OSW-1 for 72 hours in vitro. Cell viability was measured by MTT assay. The IC50 value estimated to be 4 nM and 3 nM in case #1 and #2, respectively.
as §1
As controls the effect of OSW-1 on cell survival in primary normal lymphocytes isolated from healthy donors was also analyzed. Freshly isolated normal lymphocytes were incubated with the 01-0 nM OSW-1 for 72 hours in vitro and cell viability was measured by MTT assay. As depicted in FIG. 8, the IC50 value estimated to be 4 nM and 3 nM in case #1 and #2, respectively.

[4] = test system: malignant glioma U87-MG cells; test: MTT cell growth inhibition, U87-MG glioma; format: cell-based, human
Description: as §1
To test the therapeutic selectivity of Orsaponin and 17-deoxyorsaponin, their effect on human brain tumor cells (U87 malignant glioma) and normal human astrocytes were compared. The normal human astrocytes were previously immortalized by transfection with hTER to allow a long-term culture in vitro. The antiproliferative effect of Orsaponin in human malignant glioma cells (U87-MG) and normal human astrocytes was examined. Cells were incubated with various concentrations of Orsaponin for 72 h. Cell growth inhibition was measured by MTT assay (FIG. 21).

ML-1 leukemia cells = test: MTT cell growth inhibition, ML-1; format: cell-based, human; details: Homo sapiens, 72 h, ML-1, 72 h
Description: as §1
Anticancer activities of Orsaponin and 17-deoxyorsaponin were examined in human leukemia cells (ML-1) and human lymphoma cells (Raji). Cells were incubated with various concentrations of Orsaponin and 17-deoxyorsaponin for 72 h, and cell growth inhibition was measured by MTT assay.
The effect of 17-deoxyorsaponin in human ovarian cancer cells was determined. SKOV3 ovarian cancer cells were incubated with various concentrations of 17-deoxyorsaponin for 72 h. Cell growth inhibition was measured by MTT assay (FIG. 17). […] The effect of 17-deoxyorsaponin in human acute myeloid leukemia cells was also examined. ML-1 leukemia cells were incubated with various concentrations of 17-deoxyorsaponin for 72 h and cell growth inhibition was measured using the MTT assay (FIG. 18).

## COc1ccc(C(=O)OC2C(OC3C(O)COC(O[C@H]4C[C@H]5[C@@H]6CC=C7C[C@@H](O)CC[C@]7(C)[C@H]6CC[C@]5(C)[C@@]4(O)[C@H](C)C(=O)CCC(C)C)C3OC(C)=O)OCC(O)C2O)cc1 (stereo partly drawn) [OSW-1, 3β, 16β, 17 α-trihydroxycholost-5-en-22-one 16-O-(2-O-4-methoxybenzoyl-β-D-xylopyranosyl)-(1->3)-(2-O-acetyl-α-L-arabinopyranoside)]
[1]
  IC50: ~1 nM
Primary CLL cells; Homo sapiens, CLL cell, 72 h, primary CLL cells, 72 hours, MTT, mean of 23 patients, read-out: IC50, cell viability
  IC50: 0.15 ± 0.26 nM
Primary CLL cells; IC50 ratio of malignant/normal cells (CLL vs normal lymphocytes)
  Selectivity Index: 23
ML-1 cells
  change in mitochondrial transmembrane potential: substantial loss of mitochondrial transmembrane potential
[2]
  IC50: 1500 nM
[3]; 72 h, normal lymphocytes, 72 hours, case #1, read-out: IC50, cell viability
  IC50: ~4 nM
[3]; 72 h, normal lymphocytes, 72 hours, case #2, read-out: IC50, cell viability
  IC50: ~3 nM
[3]; Normal Lymphocytes, mean, read-out: IC50
  IC50: 3.5 ± 0.7 nM
[4]; Homo sapiens, U-87 MG, U87-MG, 72 h, MTT
  IC50: < 0.1 nM
[4]; U87-MG vs normal human astrocytes
  sensitivity of glioma cells compared with normal astrocytes: much more sensitive
ML-1 leukemia cells
  IC50: < 0.1 nM
